Measured values: patent US9244074B2 (University of Hawaii, priority 2011, dated 2016)
*1 amine or outer side, *2 acyl side, *3 side chain or, on linkers, in order; H or OH if unused. Where a SMILES comes first, the peptide text is derived from it. Bridges are numbered along the chain shown (N, C = ends). Roman numbers before positions name the chains, in order. [ ]: non-standard residue; d: D form. Actinocin(9to1) = Cc1c2oc3c(C)ccc(C(=O)[*:1])c3nc-2c(C(=O)[*:2])c(N)c1=O; NMeV = CN[C@H](C(=O)O)C(C)C; Sar = CNCC(=O)O

Assays:
[1] = test system: human mesothelial (HM) cells; assay: HMGB1 localization in HM cells by immunofluorescence staining; format: cell-based; conditions: 6 hrs exposure; H2O2 100 μM, actinomycin D 0.1 μM
Procedure: After fixation and permeabilization, cells were incubated with HMGB1 antibody (BD Bioscience Pharmingen) and a fluorescein-conjugated secondary antibody (Chemicon, Temecula). Nuclei were stained with DAPI.

macrophages = assay: TNF-α secretion by macrophages given culture medium from exposed HM; format: cell-based, human; conditions: concentrated HM culture medium added to macrophages
Procedure: Expression levels of HMGB1 and its receptors RAGE, TLR2 and TLR4 in a panel of 8 MM cell lines and 8 distinct primary HM cultures were determined Primary human mesothelial cells (HM) were obtained from pleural effusions of eight different patients, pathologically diagnosed free of malignancy at the Queen's Medical Center, Honolulu, Hi. […] HM were cultured in Dulbecco's Modified Eagle Medium (DMEM) (Mediatech Inc., Manassas, Va.) containing 20% fetal bovine serum (FBS) (Gibco, Carlsbad, Calif.) and penicillin-streptomycin (100 units/ml penicillin G and 100 μg/ml streptomycin sulfate) (GIBCO), and were used between second and fifth passages. THP-1 human monocytes (ATCC, Manassas, Va.) were differentiated into macrophages by phorbol 12-myristate 13-acetate (TPA). The pleural malignant mesothelioma (MM) cell lines were established from surgically resected human MM specimens and used comparatively in our studies. REN cells were provided by Dr. Steven Albelda (University of Pennsylvania, Philadelphia, Pa.), while all other cell lines used in this study were provided by Dr. Harvey I. Pass (NYU School of Medicine, New York, N.Y.). MM cells were maintained in DMEM containing 10% FBS. All cells were cultured at 37° C. in a humidified atmosphere with 5% CO2 and grown to approximately 80-90% confluency. […]
Next, it was determined whether the release of HMGB1 was linked to an inflammatory response. […]

SMILES	HMGB1 localization in HM cells [1]	macrophage secretion of TNF-α induced by culture medium from HM exposed to the substance (macrophages)
OO [H2O2]	translocated from the nucleus into the cytosol	–
Cc1c2oc3c(C)ccc(C(=O)N[C@@H]4C(=O)N[C@H](C(C)C)C(=O)N5CCC[C@H]5C(=O)N(C)CC(=O)N(C)[C@@H](C(C)C)C(=O)O[C@@H]4C)c3nc-2c(C(=O)N[C@@H]2C(=O)N[C@H](C(C)C)C(=O)N3CCC[C@H]3C(=O)N(C)CC(=O)N(C)[C@@H](C(C)C)C(=O)O[C@@H]2C)c(N)c1=O [actinomycin D] (I: T[dV]P[Sar][NMeV] / II: T[dV]P[Sar][NMeV]; ester I:1-I:C, II:1-II:C; linker I:N-II:N via Actinocin(9to1))	remained within the nucleus	did not induce TNF-α secretion
